Paper PMC6631792, “In Vitro and In Vivo Anti-Breast Cancer Activities of Some Newly Synthesized 5-(thiophen-2-yl)thieno-[2,3-d]pyrimidin-4-one Candidates” (Molecules, 2019)

How the values were obtained:
[1] = Average animal weight in MCF-7 mouse xenograft model; format: in vivo; conditions: nude mice with MCF-7 xenograft, i.p.; for Average Weight of Animals in Grams after Days 0: day 0; for Average Weight of Animals in Grams after Days 2: day 2; for Average Weight of Animals in Grams after Days 4: day 4; for Average Weight of Animals in Grams after Days 6: day 6; for Average Weight of Animals in Grams after Days 8: day 8; for Average Weight of Animals in Grams after Days 10: day 10; for Average Weight of Animals in Grams after Days 12: day 12; for Average Weight of Animals in Grams after Days 14: day 14; for Average Weight of Animals in Grams after Days 16: day 16; for Average Weight of Animals in Grams after Days 18: day 18; for Average Weight of Animals in Grams after Days 20: day 20; for Average Weight of Animals in Grams after Days 22: day 22
Excerpt: “In this work, MCF-7 mouse xenograft model was used. The animal protocol was approved by the Institutional Animal Use Ethics and Care Committee of the University of Alabama at Birmingham (50-01-05-08B). Female athymic pathogen-free nude mice (nu/nu, 4–6 weeks) were purchased from Frederick Cancer Research and Development Center (Frederick, MD, USA). To establish MCF-7 human breast cancer xenografts, each of the female nude mice was first implanted with a 60-day (subcutaneously, s.c.) slow release estrogen pellet (SE-121, 1.7 mg […]/pellet; Innovative Research of America, Sarasota, FL, USA). After 24 h, grown cells were harvested, washed twice with serum-free medium, resuspended, and injected subcutaneously (5 million cells/0.2 mL) into the left inguinal area of the mice. During the experiment, animals were checked periodically and the percentages of tumor growth, as well as animal weights, were recorded. Every 48 h, the size of the tumor was recorded by measuring two perpendicular diameters of the tumor and tumor volume was calculated according to Wang et al. [46]”.
“Treated animals and control groups (7–10 mice/group) received different compounds and vehicles, respectively. The tested compounds were dissolved in PEG400:ethanol:saline (57.1:14.3:28.6, v/v/v), and injected intraperitoneal (i.p.) at doses of […], 3 d/wk for 3 weeks. The higher dose (10 µM/kg/d, 3 d/wk) inhibited MCF-7 xenograft tumor growth”.

MCF-7 cells = assay: MTT cytotoxic assay on MCF-7 cells; format: cell-based, Human; conditions: Homo sapiens, MCF7
Excerpt: “Human breast cancer cells (MCF-7) and normal non-tumorigenic MCF-10A cells were used throughout the work. Cells were obtained from ATCC, Gaithersburg, MD, USA. Standard MTT assay was used to explore the possible cytotoxic effects of the synthesized compounds [41, 42]. Medium composition, cultivation conditions and assay performance were exactly the same as our previous work. […] After MTT addition, the absorbance of the dissolved formazan crystals was read at 570 nm. The IC50 values were obtained with linear regression equations using Origin® 6.1 software (Origin Lab Corporation, Northampton, MA, USA)”.

Structure (SMILES) | melting point [°C] | Average Weight of Animals in Grams after Days 0 [1] [Grams] | Average Weight of Animals in Grams after Days 2 [1] [Grams] | Average Weight of Animals in Grams after Days 4 [1] [Grams] | Average Weight of Animals in Grams after Days 6 [1] [Grams] | Average Weight of Animals in Grams after Days 8 [1] [Grams] | Average Weight of Animals in Grams after Days 10 [1] [Grams] | Average Weight of Animals in Grams after Days 12 [1] [Grams] | Average Weight of Animals in Grams after Days 14 [1] [Grams] | Average Weight of Animals in Grams after Days 16 [1] [Grams] | Average Weight of Animals in Grams after Days 18 [1] [Grams] | Average Weight of Animals in Grams after Days 20 [1] [Grams] | Average Weight of Animals in Grams after Days 22 [1] [Grams] | IC50 (MCF-7 cells) [µM]
O=C(Cn1cnc2scc(-c3cccs3)c2c1=O)NN1C(=O)CSC1c1ccc(Cl)cc1 (centres unmarked) [Compound 9, N-(2-(4-Chlorophenyl)-4-oxothiazolidin-3-yl)-2-(4-oxo-5-(thiophen-2-yl)thieno[2,3-d]-pyrimidin-3(4H)-yl)-acetamide] | 175 to 177 | 24.1 | 24.1 | 24.0 | 24.0 | 24.0 | 24.0 | 23.7 | 23.7 | 23.6 | 23.6 | 23.6 | 23.6 | 2.37 ± 0.053
COc1cccc(C=NNC(=O)Cn2cnc3scc(-c4cccs4)c3c2=O)c1OC [Compound 6, N′-(2,3-Dimethoxybenzylidene)-2-(4-oxo-5-(thiophen-2-yl)thieno[2,3-d]pyrimidin-3(4H)-yl)-acetohydrazide] | 248 to 250 | 23.7 | 23.7 | 23.6 | 23.6 | 23.5 | 23.5 | 23.5 | 23.4 | 23.4 | 23.5 | 23.5 | 23.5 | 4.52 ± 0.085
O=C(Cn1cnc2scc(-c3cccs3)c2c1=O)NN=Cc1ccc(Cl)cc1 [Compound 7, N′-(4-Chlorobenzylidene)-2-(4-oxo-5-(thiophen-2-yl)thieno[2,3-d]pyrimidin-3(4H)-yl)acetohydrazide] | 250 to 252 | 27.3 | 27.3 | 27.2 | 27.2 | 27.2 | 27.1 | 27.1 | 27.1 | 27.0 | 27.0 | 27.0 | 27.0 | 4.33 ± 0.076
NNC(=O)Cn1cnc2scc(-c3cccs3)c2c1=O [Compound 4, 2-(4-oxo-5-(thiophen-2-yl)thieno[2,3-d]pyrimidin-3(4H)-yl)acetohydrazide] | 205 to 207 | 24.2 | 24.2 | 24.1 | 24.0 | 23.9 | 23.9 | 23.7 | 23.7 | 23.6 | 23.6 | 23.6 | – | 4.87 ± 0.098
O=C(Cn1cnc2scc(-c3cccs3)c2c1=O)NNC(=S)Nc1ccccc1 [Compound 10, 2-(2-(4-oxo-5-(thiophen-2-yl)thieno[2,3-d]pyrimidin-3(4H)-yl)acetyl)-N-phenylhydrazine-1-carbothioamide] | – | 24.9 | 24.9 | 24.9 | 24.9 | 24.8 | 24.8 | 24.8 | 24.4 | 24.4 | 24.4 | 24.4 | 24.4 | 3.55 ± 0.065
O=C(Cn1cnc2scc(-c3cccs3)c2c1=O)NN1C(=O)CSC1=Nc1ccccc1 [Compound 11, N-(4-oxo-2-(phenylimino)thiazolidin-3-yl)-2-(4-oxo-5-(thiophen-2-yl)thieno[2,3-d]-pyrimidin-3(4H)-yl)acetamide] | – | 26.6 | 26.6 | 26.6 | 26.5 | 26.6 | 26.6 | 26.4 | 26.3 | 26.3 | 26.3 | 26.3 | – | 2.48 ± 0.054
